Assay results from patent publication EP1228058B1, “BENZOPYRANYL GUANIDINE DERIVATIVES, PROCESS FOR PREPARATION THEREOF, AND PHARMACEUTICAL COMPOSITIONS CONTAINING THEM” (Dongbu Hannong Chemical Co., Ltd., priority 1999, dated 2001).
Where two headings read alike, the source gives them in different places.

How the values were obtained:
Human LDL = experiment: Inhibition of copper-induced LDL oxidation (MDA, TBA method); format: biochemical; conditions: CuSO4 10 uM, 18 hr
Description: Human LDL (sigma) was dissolved in distilled water at a concentration of 1 mg/ml. LDL was dialyzed against three changes of phosphate-buffered solution before oxidation to remove EDTA (ethylenediamine tetraacetate) at 4 °C for 18 hr. EDTA-free LDL (100 ug LDL protein/ml) was incubated in EDTA-free phosphate-buffered solution at 37 °C for 18 hr in the presence of CuSO4 (10 uM) under pretreatment with the test compounds or tochopherol of which final concentrations were 10^-9, 10^-7, and 10^-5 M. Blank was incubated without CuSO^., and vehicle was used as a solvent group. Oxidation was stopped at 4 °C by addition of EDTA (200 uM).
Copper (Cu^+2) facilitates the oxidation of LDL to produce malondialdehyde (MDA), thus the lipid peroxidation was determined by MDA quantification same as the above example 5 (1). The MDA quantification was estimated by reacting samples with 2-thiobarbituric acid (TBA) and measuring the absorbance at 530 nm. 1,1,3,3-Tetramethoxy propane (Sigma) was used as a standard agent, and calculated the quantity of MDA as nmol of MDA equivalents per mg protein. The inhibitory effect of the test compounds against the lipid peroxidation was evaluated by calculating MDA reduction rate of the test compounds compared with that of the control group.

HUVEC = experiment: Inhibition of intracellular ROS induced by H2O2 (H2DCFDA) in HUVEC; format: cell-based, Human; conditions: Homo sapiens; for inhibition at 10 µM: Conc. 10^-5 M; for inhibition at 1 µM: Conc. 10^-6 M; for inhibition at 0.1 µM: Conc. 10^-7 M
Description: Measurement of intracellular ROS (Reactive Oxygen Species) was determined using H2DCFDA (2',7'-dichlorodihydrofluorescein diacetate, Molecular Probes, Eugene, OR, USA). H2DCFDA is a non-polar compound that readily diffused into cells, where it is hydrolyzed by intracellular esterase to polar derivative H2DCF (2',7'-dichlorodihydrofluorescein) which can not cross the cell membrane, and thereby trapped within the cell. H2DCF is low-fluorescent, but converted to high-fluorescent DCF (2',7'-dichlorofluorescein) by intracellular ROS. Therefore, the intracellular ROS formation can be determined from the amount of converted DCF. HUVEC (Human umbilical Vascular Endothelial Cells) or A7r5 (Rat thoracic aorta smooth muscle cells) were used. HUVEC were cultured in Kaighn's F12K medium supplemented with 10% heat-inactivated FBS, 0.1 mg/ml heparin sodium, 0.03-0.05 mg/ml ECGS (Endothelial cell growth supplement) and 1% antibiotics, and A7r5 were cultured in DMEM supplemented with 10% heat inactivated FBS and 1% antibiotics. To measure the intracellular ROS, HUVEC or A7r5 were preincubated for 30 min in the presence of test compounds (10^-7-10^-5 M). Thereafter, cells were stimulated with H2O2 (10^-6 and 10^-5 M for 20 min), and then incubated in the dark for 2 hr at 37 °C in 50 mM phosphate buffer (pH 7.4) containing 5 uM H2DCFDA. The quantity of DCF fluorescence (485 nm excitation, 530 nm emission) was measured using Fluorescence plate reader (FL600, Biotek Instruments).

ischemic retinal cells = experiment: Protection of ischemic retinal cells (raised intraocular pressure); format: in vivo, rats; conditions: vitreous injection 30 min before ischemia
Description: Test compounds were dissolved in DMSO to prepare stock solution (100 mM), which was diluted with physiological saline to the concentration of 100, 50 and 30 uM. Test compounds were administered by vitreous injection before 30 min of ischemia.
Adult rats were anaesthetized with ip (intra peritoneum) injection of chloral hydrate (400 mg/Kg), then the right eyes were treated with 1% tropicamide to dilate the pupils. The intraocular pressure (IOP) was raised to 160-180 mmHg, higher than normal blood pressure (140 mmHg), by cannulation of the anterior chamber connected to hydrostatic pressure device. Interruption of blood flow was confirmed ophthalmoscopically, the elevated IOP was maintained for 30 min. After 30 min of ischemia, both eyes were enucleated, and the retina was separated, of which cellular damage was observed. Number of cells in ganglion cell layer (250 x 25 um) and innernuclear layer (150 x 25 um) were counted, then calculated as a % of living cells compared to those of non-operated left eyes as a normal control.

[1] = read-out: Inhibition (%) H2O2 (10^-5M)
[2] = read-out: Inhibition (%) H2O2 (10^-6M)

COC(OC)[C@@]1(C)Oc2ccc(N)cc2[C@@H](NC(=NC#N)NCc2ccccc2)[C@@H]1O [Example 40, (2S, 3S, 4R)-N''-cyano-N-(6 - amino-3,4-dihydro-3-hydroxy-2-methyl-2-dimethoxymethyl-2H-benzopyran-4-yl)-N'-benzylguanidine]
% Inhibition (Human LDL; 10^-5 M): 27.6% | % Inhibition (Human LDL; 10^-7 M, 0.1 µM): 24.3% | % Inhibition (Human LDL; 10^-9 M, 0.001 µM): 7.6% | inhibition at 10 µM (HUVEC; [1]): 54.9% | inhibition at 10 µM (HUVEC; [2]): 63.1% | inhibition at 1 µM (HUVEC; [1]): 25.8% | inhibition at 1 µM (HUVEC; [2]): 46.1% | inhibition at 0.1 µM (HUVEC; [1]): 12% | inhibition at 0.1 µM (HUVEC; [2]): 17.6% | Living cell (%) Ganglion Cell layer (ischemic retinal cells; 30 uM): 40.7% | Living cell (%) Innernuclear layer (ischemic retinal cells; 30 uM): 54.8% | Living cell (%) Ganglion Cell layer (ischemic retinal cells; 50 uM): 60.2% | Living cell (%) Innernuclear layer (ischemic retinal cells; 50 uM): 69.8% | Living cell (%) Ganglion Cell layer (ischemic retinal cells; 100 uM): 77.9% | Living cell (%) Innernuclear layer (ischemic retinal cells; 100 uM): 82.6%
